Measurements from ChEMBL document CHEMBL4665802, “Design, Synthesis, and Structure-Activity Relationships of Indoline-Based Kelch-like ECH-Associated Protein 1-Nuclear Factor (Erythroid-Derived 2)-Like 2 (Keap1-Nrf2) Protein-Protein Interaction Inhibitors” (J Med Chem, 2020).
Calls of active or inactive are those of the source. The calls are words filed in the database; no cut-off is given here.

Experiments:
[1] = biological target: T1, KEAP1/NRF2 (Rattus norvegicus) (UniProt O54968+P57790); assay: Inhibition of Keap1-Nrf2 protein-protein interaction in rat H9c2 cells assessed as upregulation of NQO1 expression incubated for 12 hrs by Western blot analysis; type: cell-based; settings: dose microM 0.1-10, time 12.0 hrs
[2] = test system: H9c2; assay: Antiinflammatory activity against LPS-induced sepsis in rat H9c2 cells assessed as decrease in secretion of IL-1beta at 1 to 10 uM pretreated for 12 hrs followed by LPS addition measured after 12 hrs by sandwich ELISA; type: functional, cell-based; settings: dose microM 1-10, time 24.0 hrs
[3] = test system: Mus musculus; assay: Cardioprotective activity in LPS-stimulated sepsis in C57BL/6 mouse assessed as reduction in heart tissue damage at 10 mg/kg, ip qd administered for 3 days prior to LPS stimulation and measured after 12 hrs by hematoxylin and eosin staining based microscopy; type: functional, organism-based; settings: time 3.5 day
[4] = test system: H9c2; assay: Antiinflammatory activity against LPS-induced sepsis in rat H9c2 cells assessed as decrease in secretion of TNF-alpha at 1 to 10 uM pretreated for 12 hrs followed by LPS addition measured after 12 hrs by sandwich ELISA; type: functional, cell-based; settings: dose microM 1-10, time 24.0 hrs
[5] = biological target: T1, KEAP1/NRF2 (Rattus norvegicus); assay: Inhibition of Keap1-Nrf2 protein-protein interaction in rat H9c2 cells assessed as upregulation of HO1 mRNA expression at 10 uM incubated for 4 to 24 hrs by Trizol reagent based qRT-PCR analysis; type: cell-based; settings: time hrs 4-24
[6] = AUC (0 to infinity) in rat at 5 mg/kg, iv by LC-MS/MS analysis; type: ADME, organism-based; design: time infinity, route intravenous, dose 5 mg/kg; settings: in vivo
[7] = biological target: T1, KEAP1/NRF2 (Rattus norvegicus); assay: Inhibition of Keap1-Nrf2 protein-protein interaction in rat H9c2 cells assessed as upregulation of NQO1 mRNA expression at 10 uM incubated for 4 to 24 hrs by Trizol reagent based qRT-PCR analysis; type: cell-based; settings: time hrs 4-24
[8] = test system: Mus musculus; assay: Antioxidant activity against LPS-induced injury in C57BL/6 mouse assessed as increase in GSH/GSSG ratio at 10 mg/kg, ip qd administered for 3 days prior to LPS stimulation and measured after 12 hrs; type: functional, organism-based; settings: dose mg/kg 10-40, time 3.5 day
[9] = test system: H9c2; assay: Cytoprotective activity against LPS-induced sepsis in rat H9c2 cells assessed as increase in cell viability pretreated with compound for 12 hrs followed by LPS addition measured after 12 hrs by MTT assay; type: functional, cell-based; settings: dose microM 0.1-10, time 24.0 hrs
[10] = MRT (0 to infinity) in rat at 5 mg/kg, iv by LC-MS/MS analysis; type: ADME, organism-based; settings: in vivo
[11] = test system: Mus musculus; assay: Antioxidant activity against LPS-induced injury in C57BL/6 mouse assessed as reduction in ROS levels at 10 to 40 mg/kg, ip qd administered for 3 days prior to LPS stimulation and measured after 12 hrs by H2DCFDA probe based flow cytometry; type: functional, organism-based; settings: dose mg/kg 10-40, time 3.5 day
[12] = biological target: T1, KEAP1/NRF2 (Rattus norvegicus); assay: Inhibition of Keap1-Nrf2 protein-protein interaction in rat H9c2 cells assessed as upregulation of GCLM mRNA expression at 10 uM incubated for 4 to 24 hrs by Trizol reagent based qRT-PCR analysis; type: cell-based; settings: time hrs 4-24
[13] = AUC (0 to t) in rat at 5 mg/kg, iv by LC-MS/MS analysis; type: ADME, organism-based; design: dose 5 mg/kg; settings: in vivo
[14] = biological target: T1, KEAP1/NRF2 (Rattus norvegicus); assay: Inhibition of Keap1-Nrf2 protein-protein interaction in rat H9c2 cells assessed as upregulation of HO1 mRNA expression incubated for 12 hrs by Trizol reagent based qRT-PCR analysis; type: cell-based; settings: dose microM 0.1-10, time 12.0 hrs
[15] = Metabolic stability in human liver microsome assessed as half-life at 1 uM preincubated for 5 mins followed by NADPH addition and measured after 45 mins by LC-MS/MS analysis; type: ADME; settings: liver microsomes
[16] = test system: Mus musculus; assay: Cardioprotective activity in LPS-stimulated sepsis in C57BL/6 mouse assessed as reduction in histological score at 10 mg/kg, ip qd administered for 3 days prior to LPS stimulation and measured after 12 hrs by hematoxylin and eosin staining based microscopy; type: functional, organism-based; settings: time 3.5 day
[17] = biological target: T1, KEAP1/NRF2 (Rattus norvegicus); assay: Inhibition of Keap1-Nrf2 protein-protein interaction in rat H9c2 cells assessed as upregulation of HO1 expression at 10 uM incubated up to 24 hrs by Western blot; type: cell-based; settings: time hrs <=24
[18] = test system: H9c2; assay: Upregulation of Nrf2 mRNA expression in rat H9c2 cells incubated for 12 hrs by Trizol reagent based qRT-PCR analysis; type: functional, cell-based; settings: dose microM 0.1-10, time 12.0 hrs
[19] = biological target: T1, KEAP1/NRF2 (Rattus norvegicus); assay: Inhibition of Keap1-Nrf2 protein-protein interaction in rat H9c2 cells assessed as upregulation of GCLM expression incubated for 12 hrs by Western blot analysis; type: cell-based; settings: dose microM 0.1-10, time 12.0 hrs
[20] = test system: H9c2; assay: Antioxidant activity against LPS-induced injury in rat H9c2 cells assessed as decrease in ROS level at 10 uM pretreated for 12 hrs followed by LPS addition measured after 12 hrs by H2DCFDA probe based flow cytometry; type: functional, cell-based; settings: time 24.0 hrs
[21] = test system: Mus musculus; assay: Upregulation of HO1 expression in LPS-stimulated C57BL/6 mouse model of sepsis at 10 to 40 mg/kg, ip qd administered for 3 days prior to LPS stimulation and measured after 12 hrs by Western blot analysis; type: functional, organism-based; settings: dose mg/kg 10-40, time 3.5 day
[22] = test system: Mus musculus; assay: Upregulation of GCLM expression in LPS-stimulated C57BL/6 mouse model of sepsis at 10 to 40 mg/kg, ip qd administered for 3 days prior to LPS stimulation and measured after 12 hrs by Western blot analysis; type: functional, organism-based; settings: dose mg/kg 10-40, time 3.5 day
[23] = biological target: T2, CYP1A2 (Homo sapiens, UniProt P05177); assay: Inhibition of CYP1A2 (unknown origin) at 10 uM using 7-ethoxycoumarin as substrate preincubated for 5 mins followed by NADPH addition and measured after 20 mins by LC-MS/MS analysis relative to control; type: ADME; settings: probe 7-ethoxycoumarin
T2 sequence (P05177 whole entry): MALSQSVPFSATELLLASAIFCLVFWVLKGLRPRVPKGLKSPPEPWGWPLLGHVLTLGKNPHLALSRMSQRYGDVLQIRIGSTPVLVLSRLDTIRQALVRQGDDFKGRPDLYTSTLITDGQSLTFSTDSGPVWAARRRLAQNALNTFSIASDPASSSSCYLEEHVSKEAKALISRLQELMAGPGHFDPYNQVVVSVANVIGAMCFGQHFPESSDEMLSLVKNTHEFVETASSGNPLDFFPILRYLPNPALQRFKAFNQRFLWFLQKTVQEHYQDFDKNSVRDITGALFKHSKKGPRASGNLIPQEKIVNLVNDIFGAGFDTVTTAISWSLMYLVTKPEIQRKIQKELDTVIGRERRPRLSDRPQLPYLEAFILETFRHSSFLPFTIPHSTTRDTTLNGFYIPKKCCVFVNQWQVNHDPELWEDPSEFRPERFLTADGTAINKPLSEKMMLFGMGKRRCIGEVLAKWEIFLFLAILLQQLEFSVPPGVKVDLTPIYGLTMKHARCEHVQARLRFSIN

[24] = biological target: CYP2C9 (Homo sapiens, UniProt P11712); assay: Inhibition of CYP2C9 (unknown origin) at 10 uM using […] as substrate preincubated for 5 mins followed by NADPH addition and measured after 20 mins by LC-MS/MS analysis relative to control; type: ADME
Sequence of CYP2C9 (P11712 whole entry): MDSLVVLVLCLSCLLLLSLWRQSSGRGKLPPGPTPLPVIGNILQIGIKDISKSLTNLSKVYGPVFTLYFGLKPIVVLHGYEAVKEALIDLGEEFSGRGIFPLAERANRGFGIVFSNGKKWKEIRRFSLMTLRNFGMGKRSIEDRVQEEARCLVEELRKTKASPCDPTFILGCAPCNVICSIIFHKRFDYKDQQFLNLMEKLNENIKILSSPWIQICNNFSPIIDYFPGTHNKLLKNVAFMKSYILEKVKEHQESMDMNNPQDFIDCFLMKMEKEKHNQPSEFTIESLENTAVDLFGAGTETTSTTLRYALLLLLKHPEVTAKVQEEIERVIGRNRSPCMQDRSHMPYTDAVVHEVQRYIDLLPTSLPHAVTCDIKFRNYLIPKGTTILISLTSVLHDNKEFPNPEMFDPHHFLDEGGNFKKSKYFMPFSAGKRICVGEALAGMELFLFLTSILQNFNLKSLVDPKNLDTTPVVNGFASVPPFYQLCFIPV

[25] = Metabolic stability in human liver microsome assessed as parent compound remaining at 1 uM preincubated for 5 mins followed by NADPH addition and measured after 45 mins by LC-MS/MS analysis; type: ADME; settings: liver microsomes, time 50 min, read-out: Stabilty

SMILES: COc1ccc(S(=O)(=O)NC(=O)CN(c2cccc3c2CCN3C(C(=O)NS(=O)(=O)c2ccc(C)cc2OC)c2cccc(OC)c2)S(=O)(=O)c2ccc(OC)cc2)cc1 (stereo not given)
- inhibition [1]: Dose-dependent effect
- Activity [2]: Active
- Activity [3]: Active
- Activity [4]: Active
- inhibition [5]: Active
- AUC(0-inf) [6]: 47000 ng·h/mL
- inhibition [7]: Active
- Activity [8]: Active
- Activity [9]: Dose-dependent effect
- MRT inf [10]: 1.1 h
- Activity [11]: Active
- inhibition [12]: Active
- AUC(0-t) [13]: 47000 ng·h/mL
- inhibition [14]: Dose-dependent effect
- half-life at 1 µM [15]: 2.52 h
- Activity [16]: Active
- inhibition [17]: Active
- Activity [18]: Dose-dependent effect
- inhibition [19]: Dose-dependent effect
- Activity [20]: Active
- Activity [21]: Active
- Activity [22]: Active
- inhibition at 20 min, 10 µM [23]: 8.75%
- inhibition at 20 min, 10 µM [24]: 30.3%
- remaining at 0.75 h, 1 µM [25]: 74.4%
